Experimental data reported in patent publication US20140301961A1, “COMPOUNDS WITH ANTI-AGING ACTIVITIES” (priority 2011, published 2014).

Experiments:
VEGF = test: Inflammation induced VEGF synthesis in cultured dermal fibroblasts; format: cell-based, human; settings: inflammatory inducer PMA (FIG. 10)
Procedure: (§1) MMP-inhibitory activity for compounds of the invention was also assessed on human dermal fibroblasts. Dermal fibroblasts were cultured in Dulbecco's Modified Eagle Medium (DMEM) (Invitrogen) with 10% EBS (ex. Invitrogen) and 1% Pencillin/Streptavidin (ex. Invitrogen). To induce inflammation in the cells, PMA (phorbol myristate acetate) (ex. Sigma) was used at a concentration of 10 nM. […] The cells were stimulated for 24 h and the culture supernatant was collected and stored at −20° C. until further analysis.
Fluorokine MultiAnalyte Profiling (xMAP) using the BioPlex (ex. Biorad) dual laser flow-based sorting and detection analyzers manufactured by Luminex corporation (Luminex, Austin, Tex.) was employed to measure levels of MMP in conditioned media samples of stimulated dermal fibroblasts. The technology incorporated polystyrene microspheres dyed internally with differing ratios of two spectrally distinct fluorophores to create a family of different spectrally addressed bead sets. The bead utilized in this study was conjugated with a biotinylated capture antibody specific for a unique MMPs, The assay was performed without antecedent serum depletion. Results were compared with medium from cells treated with vehicle only (DMSO). The assays utilized a 96-well microplate format and were processed according to the manufacturer's protocol, including generation of a standard curve for each target prepared in background assay diluents. Values that fell within the linear range of the calibration assay were accepted. Samples were analyzed using the Bio-Plex suspension array system and Bio-Plex Manager software 4.0 (Bio-Rad Laboratories, Hercules, Calif.). Quantities were determined by comparison to standard curves obtained for the different MMP.
Cell culture and cytokine analysis was carried out on human dermal fibroblasts as described in Example 3.1. The methodology was adapted in order analyze VEGF production.

[1] = tested on: connective tissue growth factor (CTGF); test: Affymetrix gene array on skin explants, CTGF; format: cell-based, human; settings: topical, 24 hours
Text: (§2) Subcutaneous fat from full thickness skin, obtained from surgical waste material from breast reduction procedures, was removed with a scalpel. Three healthy Caucasian female donors were used for this study. The female donors differed from those of the skin-treatment study outlined previously 8 mm punch biopsies were taken from the skin (and these biopsies are now referred to as skin explants). Skin explants were put on Milipore cell culture inserts (12 mm diameter). Inserts containing skin explants were put in 6-well plates (one insert/well) and 1 mL of supplemented keratinocyte medium (ex Cascade Biologics) was added to each well. A tretinoin-containing cream (Aberela® ex. Janssen): 0.05% tretinoin in the cream, was applied topically to each explant (5 μL/cm^2) using a positive displacement pipette. A placebo cream without tretinoin was used as a control. The skin explants were incubated with tretinoin for 24 hours at 37° C. in 5% CO2-humidified air.
(§3) RNA concentration was measured with ND-1000 spectrophotometer (ex. NanoDrop Technologies) and RNA quality was evaluated using the Agilent 2100 bioanalyzer system (ex. Agilent Technologies). 250 nanograms of total RNA from each skin or skin explant sample was used to prepare biotinylated fragmented cRNA according to the GeneChip® 3′IVT Express Kit Manual (PN702646 Rev 1, ex. Affymetrix Inc.). Affymetrix GeneChip® expression arrays (Human Genome U133 Plus 2.0) were hybridized for 16 hours in a 45° C. incubator, rotated at 60 rpm. According to the GeneChip Expression Wash, Stain and Scan Manual (PN 702731 Rev 2, ex. Affymetrix Inc.) the arrays were washed and stained using the Fluidics Station 450 and scanned using the GeneChip® Scanner 3000 7G.
(§4) Analysis of the gene expression data was carried out in the statistical computing language R (http://www.r-project.org) using packages available from the Bioconductor project (www.bioconductor.org). The raw data was normalized using the robust multi-array average (RMA) method. In order to search for differentially expressed genes between the X samples and the Y samples group an empirical Bayes moderated t-test was then applied using the ‘limma’ package.
Skin explants were obtained as detailed in Example 3.1. Compounds naringenin and N-acetyl aspartic acid were topically applied on skin explants for 24 hours and investigated with Affymetrix gene array.

[2] = tested on: heparin-binding EGF-like growth factor (HBEGF); test: Affymetrix gene array on skin explants, HBEGF; format: cell-based, human; settings: topical, 24 hours, cut-off |log 2−ratio|>1
Text: as §2, §3
Analysis of the gene expression data was carried out in the statistical computing language R (http://www.r-project.org) using packages available from the Bioconductor project (www.bioconductor.org). The raw data was normalized using the robust multi-array average (RMA) method. […]

[3] = tested on: Plasminogen activator (PLAT); test: Plasminogen activator (PLAT) activation
Kallikrein 8 = Kallikrein 8 ELISA in human normal keratinocytes; format: cell-based; settings: 4 days stimulation (FIG. 14)
Procedure: (§5) Keratinocytes were cultured in commercially available keratinocyte medium M154 (Cascade Biologics/Invitrogen) # M154500 with a final calcium […]. Supplements were added meeting following final concentrations of growth factors; bovine pituitary extract (BPE), 0.2% v/v·bovine insulin, 5 μg/ml·hydrocortisone, 0.18 μg/ml·bovine transferrin, 5 μg/ml·human epidermal growth factor, 0.2 ng/ml.
Keratinocytes used for Kallikrein 8 experiments were cultured as described in example 2.1. Experiments were performed in monolayers with 80% confluence. The cells were stimulated for 4 days prior to kallikrein 8 analysis with the different actives and then culture supernatant were collected and stored in −20° C. until further analysis. Kallikrein 8 production was analysed in cell culture supernatants from stimulated keratinocytes using a ELISA assay specific for Kallikrein 8 (Uscn Life Science Inc, E90690Hu). Results were compared with cell culture supernatants from DMSO vehicle treated cells. The assays utilized a 96-well microplate format and were processed according to the manufacturer's protocol, including generation of a standard curve prepared in background assay diluents. Absorbance of the assay dye was read at a Synergy HT plate reader. Values that fell within the linear range of the calibration assay were accepted. Quantities were determined by comparison to standard curves obtained for KLK8.

[4] = tested on: prostaglandin-endoperoxide synthase 1 (PTGS1); test: Affymetrix gene array on skin explants, PTGS1; format: cell-based, human; settings: topical, 24 hours
Text: as §2, §3, §4
(§6) Skin explants were obtained as detailed in Example 3.1.

[5] = tested on: hydroxysteroid (17-beta) dehydrogenase 2 (HSD17B2); test: Affymetrix gene array on skin explants, HSD17B2; format: cell-based, human; settings: topical, 24 hours
Text: as §2, §3, §4, §6

[6] = tested on: steroid 5 alpha-reductase 3 (SRD5A3); test: Affymetrix gene array on skin explants, SRD5A3; format: cell-based, human; settings: topical, 24 hours
Text: as §2, §3, §4, §6

[7] = tested on: tachykinin, precursor 1 (TAC1); test: Affymetrix gene array on skin explants, TAC1; format: cell-based, human; settings: topical, 24 hours
Text: as §2, §3, §4, §6

[8] = tested on: arachidonate 5-lipoxygenase (ALOX5); test: Affymetrix gene array on skin explants, ALOX5; format: cell-based, human; settings: topical, 24 hours
Text: as §2, §3, §4, §6

pro-collagen type 1 = test: Pro-collagen 1 ELISA in dermal fibroblasts; format: cell-based, human; settings: 24 hour stimulation, 3 donors (FIG. 5)
Procedure: as §1
Fibroblast cells were cultured as outlined in Example 3.1 and treated with compounds of the invention The secretion of pro-collagen in the cell culture supernatants were analyzed using Pro-Collagen 1 specific ELISA (#8003; ex. Quidel). Results were compared with cell culture supernatants from DMSO vehicle treated cells. The assays utilized a 96-well microplate format and were processed according to the manufacturer's protocol, including generation of a standard curve prepared in background assay diluents. Absorbance of the assay dye was read at a Synergy HT plate reader. Values that fell within the linear range of the calibration assay were accepted. Quantities were determined by comparison to standard curve obtained for pro-collagen 1.

fibronectin = test: Fibronectin production in human keratinocytes; format: cell-based; settings: 6 days stimulation, compared to all-trans retinoic acid and retinol
Procedure: as §5
(§7) Medium was changed every other day. Cells were grown to 80% confluence prior stimulation with compounds. Experiments were performed in 24-well plates. The cells were treated with individual compounds of the invention for 6 days. After 3 days the medium was refreshed. A source of calcium ions was used as a positive control. After 6 days tissue culture medium was stored in −20° C. until analysis.
Experimental method as outlined in Example 3.1 was modified in order to analyze fibronectin levels extracted from keratinocytes stimulated for 6 days with all-trans retinoic acid, retinol, arachidonic acid, β-aescin, and […] (ethyl ester) at a range of concentrations. Experiments were performed in duplicates.
Cells were cultured as described in Example 5.1. and the methodology described in Example 3.1 was adapted in order analyze fibronectin production.

Keratin 1/10 = Keratin 1/10 production in human normal keratinocytes; format: cell-based; settings: concentration not given
Procedure: as §5, §7
Cells were cultured as described in Example 5.1. and the methodology described in Example 3.1 was adapted in order analyze keratin 1/10 production.

[9] = cited from earlier work
keratin 6 = test: Keratin-6 production in normal human keratinocytes; format: cell-based; settings: normal human keratinocytes (FIG. 11)

Compound	inflammatory induced VEGF synthesis (VEGF)	synthesis of kallikrein 8 (Kallikrein 8)	production of pro-collagen type 1 (pro-collagen type 1)	fibronectin production / release (fibronectin)	production of Keratin 1/10 (Keratin 1/10)	further results
CC1=C(/C=C/C(C)=C/C=C/C(C)=C/C(=O)O)C(C)(C)CCC1 [All-trans retinoic acid, all-trans retinoic acid, reference compound]	additional increase in VEGF	significant stimulation of kallikrein 8				CTGF gene expression ([1]; cut-off |log 2−ratio|>1): No; CTGF gene expression ([1]; cut-off |log 2−ratio|>1, listed as all-trans retinoic acid): did not have any effect; HBEGF gene expression [2]: 1.21 log 2−ratio; Plasminogen activator (PLAT) activation [3]: activated; PTGS1 gene expression [4]: −1.03 log 2−ratio; HSD17B2 gene expression [5]: −0.48 log 2−ratio; SRD5A3 gene expression [6]: 0.29 log 2−ratio; TAC1 gene expression [7]: −4.01 log 2−ratio; ALOX5 gene expression [8]: −0.69 log 2−ratio
CCCCC/C=C\C/C=C\C/C=C\C/C=C\CCCC(=O)O [Arachdonic acid, Arachidonic acid]		significant increase in the synthesis of kallikrein 8	promote pro-collagen 1 expression	higher fibronectin production than retinoic acid	stimulate production of Keratin 1/10	Log p [9]: 6.98
CC/C=C\C/C=C\C/C=C\C/C=C\C/C=C\C/C=C\CCC(=O)OCC [Docosahexaenoic acid (ethyl ester)]		significant increase in the synthesis of kallikrein 8	convincing trend towards increasing	higher fibronectin production than retinoic acid	stimulate production of Keratin 1/10	keratin-6 production (keratin 6): stimulated keratin-6 production
O=c1c(O)c(-c2ccc(O)c(O)c2)oc2cc(O)cc(O)c12 [Quercetin]		induce production of Kallikrein 8	promote pro-collagen 1 expression		stimulate production of Keratin 1/10	
O=c1cc(-c2ccc(O)cc2)oc2c([C@@H]3O[C@H](CO)[C@@H](O)[C@H](O)[C@H]3O)c(O)cc(O)c12 [Vitexin]						Log p [9]: 1.5
CC1=C(/C=C/C(C)=C/C=C/C(C)=C/CO)C(C)(C)CCC1 [retinol, All-trans retinol, reference compound]	small but insignificant decrease in VEGF	significant stimulation of kallikrein 8				
β-aescin [Beta Aescin]	decreased VEGF expression, although insignificant	induce production of Kallikrein 8	convincing trend towards increasing	higher fibronectin production than retinoic acid	stimulate production of Keratin 1/10	
